Earlier results, collected in US5308833A, “Method for treating hepatitis B carriers with minimal disease” (SciClone Pharmaceuticals, priority 1992, dated 1994).
Where no end group is shown, it is not given here.

Legend:
[1] = test system: hepatitis B virus
[2] = test system: lymphocyte; settings: individuals suffering from chronic active hepatitis B

## thymosin α-1 (SDAAVDTSSEITTKDLKEKKEVVEEAEN; ends and bridges not checked; UniProt P06454 2-29, looked up) [28 amino acid peptide originally isolated from calf thymus thymosin fraction 5]
[1]; patients with chronic active hepatitis B administered the peptide
  hepatitis B virus DNA in serum: cleared hepatitis B virus DNA from serum
[1]; patients with chronic active hepatitis B, after treatment was terminated
  serum HBV DNA after treatment was terminated: tested persistently negative for serum HBV DNA
[2]
  lymphocyte counts: increases in lymphocyte counts
  production of γ-interferon: enhance production of γ-interferon
